Here are results for one molecule from patent publication US6303596A, “Use of taurolidine for treatment of leukemias” (priority 2000, dated 2001).

Data set [1] relates to MM6. The data set can be described thus: TUNEL / propidium iodide flow cytometry, MM6. The settings on record: for % TUNEL-positive: MM6, taurolidine 100 μg/ml or anisomycin 1 μg/ml for 4 h, assayed at 6 hours, mean ± SD. In kind it is cell-based, human. As for the experimental part:
In the second method, DNA fragmentation was detected via TUNEL assay according to the manufacturer's instructions. With this methodology, 2×10^6 cells were fixed with 2% paraformaldehyde, permeabilized with 0.1% Triton X-100/0.1% citrate, incubated at 37° C. with terminal deoxynucleotidyl transferase and FITC-dUTP, rinsed and analyzed by flow cytometry. Enhanced FITC signal indicates apoptosis-specific DNA fragmentation. Gavriali, et al, "Identification of programmed cell death in situ via specific labeling of nuclear DNA fragmentation," J Cell Biol 119:493 (1992). Parallel aliquots of unfixed cells were treated with PI and FITC-conjugated anti-CD14 and analyzed by flow cytometry, in order to identify cells with permeable cell membranes (since PI binds to DNA but is excluded from cells with intact plasma membranes) and also to determine the cell-specificity of the apoptotic signal.
Consequently, TUNEL analysis was performed on PBMC at 3, 6, or 24 hours after treatment with 25 to 100 μg/ml taurolidine. Aliquots of harvested cells were also labeled with FITC-conjugated anti-CD14 antibodies and PI, which allowed identification of monocytes (CD14-positive cells) and cells with damaged cell membranes (PI-positive cells). […] Thus, nearly 75% of the monocytes were TUNEL-positive following treatment with 100 μg/ml taurolidine for six hours. Confirmation that the TUNEL-positive cells were monocytes was obtained by staining with FITC-conjugated anti-CD14.
In another study, TUNEL assays were performed on all cell lines 6 hours after cells were initially exposed to taurolidine (cells were treated for 4 hours, rinsed, and then incubated for 2 more hours before TUNEL assay was performed).
. Taurolidine and anisomycin induced apoptosis in MM6, HL-60, and Jurkat cells (Table VIII). MM6 and HL-60 cells were similarly effected, with >80% TUNEL-positive cells after 6 hours. Jurkat cells were less sensitive, with approximately 50% of cells induced to undergo apoptosis after taurolidine treatment. After 6 hours, 73% of anisomycin-treated REH cells were apoptotic, with less than 20% of taurolidine-treated REH cells being TUNEL-positive. However, assay of cells 24 hours after
^a Analysis by flow cytometry after staining cells with propidium
iodide and processing for TUNEL.
Data are percent of total cell-size events, and are expressed as mean ±
Cells were treated for 4 hours with taurolidine (100 μg/ml) or
anisomycin (1 μg/ml), and then assayed at 6 hours.

For data set [2], the system named is MM6 cells. The data set can be described thus: DNA fragmentation, agarose gel electrophoresis, MM6. In kind it is cell-based, human. As for the experimental part: FIG. 13 is an agarose gel depicting DNA fragmentation in response to taurolidine treatment as determined by assay procedures. MM6 cells were incubated with taurolidine or vehicle in RPMI+10% BCS for four hours. Cells were harvested and low molecular weight DNA extracted as described below. C=control cells without taurolidine or vehicle treatment; T=treated with 50 μg/ml taurolidine; V=treated with vehicle alone; and MW=molecular weight markers.
Following treatment with either taurolidine or the vehicle solution, cell death was assessed in one of two ways. In the first method, the DNA fragmentation pattern characteristic of apoptosis was detected by extracting low molecular weight DNA from cells using a phosphate-citrate buffer (Darzynkiewicz, et al., "Assays of cell viability: discrimination of cells dying by apoptosis," Methods Cell Biol 41:15 (1994)) and subjecting the extracted DNA to agarose gel electrophoresis.
Apoptosis is associated with fragmentation of genomic DNA in the internucleosomal linker regions, which can be visualized as a characteristic ladder of DNA fragments upon gel electrophoresis. Arends, M. J. and Wyllie, A. H., "Apoptosis: mechanisms and roles in pathology," Int Rev Exp Path 32:223 (1991). Accordingly, low molecular weight DNA was extracted from taurolidine-treated MM6 cells and subjected to electrophoresis in agarose gels.

For data set [3] the following is noted: intravenous administration; cited from earlier work.
Data set [4] relates to MM6 cells. The data set can be described thus: growth rate after taurolidine treatment, MM6. In kind it is cell-based, human. Here is the method:
FIG. 4A and FIG. 4B are graphs depicting cell viability and growth rates following taurolidine treatment as determined by assay procedures. MM6 cells were treated with taurolidine as described in FIG. 3. After aliquots were collected for the lactate dehydrogenase (LDH) assay, the remainder of the culture was rinsed in Hank's balanced salt solution (HBSS) and resuspended in RPMI+10% BCS without taurolidine. Counts of trypan blue-negative cells represented in FIG. 4A and total cell number represented in FIG. 4B were recorded daily thereafter (with the measurement at Day 1 being made immediately after the four hour taurolidine treatment). […]
FIGS. 5A and 5B depict cell viability and growth rates for MM6 cell line following taurolidine treatment, in terms of % trypan blue negative cells and % cell number, respectively. […] Counts of trypan blue-negative cells (FIG. 5A), and total cell number (FIG. 5B), were recorded daily thereafter (with the measurement at Day 1 being made immediately after the 4 hour taurolidine treatment). […] Doubling times were determined under each condition, and expressed as a percentage of the rate of doubling of untreated cells. […]
In these experiments, integrity of cell membranes following taurolidine treatment was assessed by exclusion of trypan blue and by measuring the release of LDH in MM6, K-562, HL-60, and REH cells. […]

On to `O=S1(=O)CCN(CN2CCS(=O)(=O)NC2)CN1` [taurolidine, 4,4'-methylenebis(perhydro-1,2,4-thiadiazin 1,1-dioxide)], for which the cytotoxicity at 50 µg/mL in data set [1] (Homo sapiens, MONO-MAC-6, 3 h, read-out: % Propidium Iodide Positive Cells) came to 7%. The “% TUNEL-positive” value in data set [1] was 80.9 ± 7.7%; in data set [1] (listed as Taurolidine) it was over 80%. The “onset of apoptosis after treatment” value in data set [1] (MM6 cells) is “detectable within four to six hours”. The “% TUNEL-Negative Cells” value in data set [1] (Mono Mac 6, 50 μg/ml, 3 hours) is 44%. Besides, the DNA fragmentation ladder result in data set [2] (MM6, 50 μg/ml taurolidine, 4 h, no LPS) is on record as “prominent ladder pattern of DNA fragments”; in data set [2] (MM6, LPS present during taurolidine treatment) it was “identical results”. In data set [3], the “alterations in hematologic variables, including white cell count” value is “does not cause detectable alterations”. In addition, the “growth rate after return to growth medium” value in data set [4] (MM6, 25 μg/ml taurolidine for 4 h) is recorded as “growth rates similar to that observed with untreated cells”. Moreover, the “growth after return to growth medium” value in data set [4] (MM6, 50 μg/ml taurolidine for 4 h) is reported as “failed to grow”.
